Values joined by “and” are separate entries in the source; they are usually repeats but may differ in a detail not shown here. Equal entries are not always repeated.
How the values were obtained:
M109 tumor = assay: survival of intraperitoneal M109 tumor-bearing mice; format: in vivo, Balb/c mice; conditions: for increase in lifespan (ILS): 1800 mmoles/kg i.p. once daily beginning on day 5 after tumor cell inoculation, FIG. 2
Description: (§1) The effectiveness of EC72 for promoting survival of tumor-bearing mice was evaluated in vivo using M109 tumor-bearing Balb/c mice. There were two goals of this study: i) to determine if daily intraperitoneal treatment with EC72 could prolong the lives of folate receptor-positive tumor-bearing mice beyond what mitomycin C could do when tested under an identical dosing regimen, and ii) to examine the pathological effects of EC72 treatment on normal tissues, including kidney tissue which is folate receptor-positive tissue. Although most normal tissues contain very low levels of folate receptor, the proximal tubules of the kidney express appreciable numbers of folate receptors. Thus, the in vivo evaluation of EC72 also enabled evaluation of the extent of kidney-specific damage caused by the systemic administration of folate-mitomycin conjugates.
Balb/c mice (5 mice/group) were given an intraperitoneal injection with 1×10^6 M109 cells. The mice were then given an intraperitoneal injection once daily with […]/kg of EC72 or mitomycin C (control mice were injected with PBS) beginning on day 5 after tumor cell innoculation (ILS=increased life span (i.e., median survival time)).
Thus, a group of animals were given intraperitoneal injections of EC72 plus a 10-fold excess of free folic acid.

[1] = for myelosuppression / kidney damage: M109 tumor-bearing mice, daily i.p. treatment
Description: as §1
Major organs were also collected in both the EC72 and mitomycin C-treated animals (following euthanasia), and they were sent to an independent pathologist for examination.

subcutaneous M109 tumors [2] = assay: subcutaneous M109 tumors treated with TAXOL with or without EC72; format: in vivo, Balb/c mice
Description: The protocol described in Example 5 was followed except that animals were injected i.v. at the beginning of the treatment period and were injected i.p. later in the treatment period.
Tumor volumes were calculated using the equation V=a×b^2/2, where “a” is the length of the tumor and “b” is the width expressed in millimeters. The tumors were measured using calipers.

[3] = toxicity of TAXOL / EC72 regimens (weight loss, blood chemistry, tissue pathology); format: in vivo, Balb/c mice; set-up: key to Liver: mice with Degeneration / Liver: grade of Degeneration: “0.5” = Occasionally present; “1” = Mild; “2” = Moderate; “3” = Marked
Text: The toxicity of each tested regimen was also monitored by measuring weight loss, blood chemistry, and tissue pathology.

subcutaneous M109 tumors [4] = assay: growth of subcutaneous M109 tumors, EC72 i.v. then i.p.; format: in vivo, Balb/c mice; conditions: 1800 nmoles/kg qd×5 for six weeks from day 4, i.v. (12 injections) then i.p.; FIG. 4
Description: The anti-tumor activity of EC72 when administered intravenously (i.v.) to tumor-bearing animals, was evaluated in Balb/c mice bearing subcutaneous M109 tumors. Thus, a protocol similar to that described in Example 3 was followed except that the compounds were administered i.v. (described below) and the tumors were subcutaneous. Four days post tumor inoculation in the subcutis of the right axilla, mice were injected i.v. qd×5 for six weeks with 1800 nmoles/kg of EC72.
Tumor growth was determined at 2-day intervals in each treatment group until the tumors grew to at least 1500 mm3. The tail veins became excessively bruised and inaccessible after 12 i.v. injections so dosing was continued i.p. following the same qd×5 schedule. […] Thus, EC72 may not have reached the distal subcutaneous tumor efficiently following i.p. administration of EC72, a limitation not encountered when EC72 was administered i.v. during the initial phase of the therapy.

[5] = system: Folate receptor-negative 4T-1 tumor; assay: in vivo activity on folate receptor-negative tumor; set-up: species or system mice (female Balb/C strain); conditions: i.p. qd×30 from day 4 post tumor inoculation; FIG. 12
Description: Six to seven week-old mice (female Balb/C strain) were obtained from Harlan, Inc., Indianapolis, Ind. The mice were maintained on Harlan's folate-free chow for a total of three weeks prior to the onset of and during this experiment. Folate receptor-negative 4T-1 tumor cells (1×10^6 cells per animal) were inoculated in the subcutis of the right axilla. The formulations indicated in FIG. 12 were dosed intraperitoneally qd×30 starting on day 4 post tumor inoculation, and tumor volume as well as animal survival were monitored daily. EC72 had no activity against a subcutaneous folate-receptor-negative 4T-1 tumor.

[6] = molecular target: T1, folate receptors (FRs) on KB cells (Homo sapiens, UniProt P15328); assay: relative affinity assay (3H-folic acid displacement); format: binding; conditions: 100 nM 3H-folic acid, 15 min on ice, folic acid set to 1, FIG. 9
T1 construct: FR-positive KB cells were gently trypsinized; endogenous in cells; host or cells: KB cells
T1 sequence (P15328 25-234): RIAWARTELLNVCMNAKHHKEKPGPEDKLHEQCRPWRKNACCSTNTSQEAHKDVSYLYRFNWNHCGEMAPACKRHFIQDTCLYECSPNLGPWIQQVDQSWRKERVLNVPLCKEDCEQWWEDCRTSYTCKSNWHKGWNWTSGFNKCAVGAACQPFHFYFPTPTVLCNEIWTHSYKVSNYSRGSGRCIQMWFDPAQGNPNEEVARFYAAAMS
Description: The affinity of EC72 for folate receptors (FRs) relative to folate was determined according to a previously described method (Westerhof, G. R., J. H. Schomagel, et al. (1995) Mol. Pharm. 48: 459-471) with slight modification. Briefly, FR-positive KB cells were gently trypsinized in 0.25% trypsin in phosphate-buffered saline (PBS) at room temperature for 3 minutes and then diluted in folate-free RPMI (FFRPMI) containing 10% heat-inactivated fetal calf serum (HIFCS). Following a 5 min 800×g spin and one PBS wash, the final cell pellet was suspended in FFRPMI 1640 (no serum). Cells were incubated for 15 min on ice with 100 nM ^3H-folic acid in the absence and presence of increasing concentrations of EC72 or folate. Samples were centrifuged at 10,000×g for 5 min, and then the cell pellets were suspended in buffer, transferred to individual vials containing 5 mL of scintillation cocktail, and then counted for radioactivity. Negative control tubes contained only the ^3H-folic acid in FFRPMI (no competitor). Positive control tubes contained a final concentration of 1 mM folic acid, and CPMs measured in these samples (representing non-specific binding of label) were subtracted from all samples.

subcutaneous M109 tumors [7] = assay: survival of mice bearing subcutaneous M109 tumors, delayed start of EC72 treatment; format: in vivo, Balb/c mice; conditions: for Median Survival: EC72 1800 nmol/kg i.v. qd×5 for 4 weeks
Description: The protocol described in Example 4 was followed except that mice were injected i.v. throughout the treatment period and were treated with EC72 for 4 weeks. Balb/c mice (n=5) were injected subcutaneously in the subcutis of the right axilla with 1×10^6 M109 cells and were treated qd×5 for 4 weeks with 1800 nmol/kg of EC72. EC72 was administered i.v. beginning on the designated day post tumor cell inoculation (PTI; see Table 3). Animal survival was monitored daily, and mice showing a complete response were those that were tumor-free at day 60 PTI.

FR-positive KB cells = assay: in vitro dose response, 3H-thymidine incorporation (DNA synthesis); format: cell-based; conditions: 0.1 mM folic acid (competitor)
Description: KB cells were seeded in 12-well Falcon plates and allowed to form near-confluent monolayers overnight. Following one rinse with 1 mL of fresh FFRPMI/HIFCS, each well received 0.5 mL of FFRPMI/HIFCS containing increasing concentrations of EC72 in the presence of absence of 0.1 mM folic acid (competitor). Cells were incubated for 15 min at 37° C. and then rinsed four times with 0.5 mL of FFRPMI/HIFCS. 0.5 mL of fresh FFRPMI/HIFCS was then added to each well, and cells were chased for a total of 72 h at 37° C. Two hours before the end of the incubation, media was replaced in each well with 0.5 mL FFRPMI/HIFCS containing 5 μCi of ^3H-thymidine. Monolayers were then washed 3 times with 0.5 mL of PBS and then precipitated with 1 ml of 10% cold trichloroacetic acid. The trichloroacetic acid solution was collected and discarded, and precipitated material was sequentially dissolved in 0.5 mL 0.25 N NaOH and 1% sodium dodecyl sulfate for 15 min at room temperature. Samples were then counted for radioactivity using a Packard gamma counter. Final tabulated values were expressed as a percentage of radioactivity incorporated into untreated cell samples.

[8] = system: Folate receptor-positive M109 P0 tumor cells; assay: in vivo dose response, intraperitoneal M109 tumor; set-up: species or system mice (female Balb/C strain)
Description: Six to seven week-old mice (female Balb/C strain) were obtained from Harlan, Inc., Indianapolis, Ind. The mice were maintained on Harlan's folate-free chow for a total of three weeks prior to the onset of and during this experiment. Folate receptor-positive M109 P0 tumor cells (0.5×10^6 cells per animal) were inoculated in the upper peritoneal cavity 4 days prior to the onset of dosing. The formulations indicated in FIG. 11 were dosed intraperitoneally qd×30 starting on day 4 post tumor inoculation, and animal survival was monitored daily.

[9] = system: folate receptor-positive KB cells; assay: in vitro cytotoxicity assay (bromodeoxyuridine-based ELISA); format: cell-based
Description: A compound denominated as EC72 (see scheme 1) was evaluated using an in vitro cytotoxicity assay that predicts the ability of the drug to inhibit the growth of folate receptor-positive KB cells. This compound comprises a folate analog linked to mitomycin C prepared according to the protocol depicted in scheme 2. The KB cells were exposed for 15 minutes at 37° C. to the indicated concentrations of EC72, free mitomyicn C (drug #1), or to EC72 and at least a 100-fold excess of folic acid. The cells were then rinsed once with fresh culture medium and incubated in fresh culture medium for 72 hours at 37° C. Cell viability was assessed using a bromodeoxyuridine-based ELISA assay.

[10] = Taxol 15 mg/kg with EC72 0 or 1800 nmol/kg, 6 mice/cohort
[11] = Taxol 15 mg/kg with EC72 0 or 1800 nmol/kg, 6 mice/cohort, listed as Taxol
[12] = tissue pathology, TAXOL 15 mg/kg, n = 6 mice

CO[C@@]12[C@H](COC(N)=O)C3=C(C(=O)C(C)=C(N)C3=O)N1C[C@@H]1N[C@@H]12 [mitomycin C, reference compound]
increase in lifespan (ILS) (M109 tumor): 39%
increased life span (median survival time) over PBS control group (M109 tumor; repeat experiment, 30 daily i.p. injections, FIG. 3): ~25%
myelosuppression / kidney damage [1]: extensive myelosuppression
cause of death of treated animals ([1]; mouse, in vivo, ip): died from apparent mitomycin C-related side effects

CC(=O)O[C@H]1C(=O)[C@@]2(C)[C@H]([C@H](OC(=O)c3ccccc3)[C@]3(O)C[C@H](OC(=O)[C@H](O)[C@@H](NC(=O)c4ccccc4)c4ccccc4)C(C)=C1C3(C)C)[C@]1(OC(C)=O)CO[C@@H]1C[C@@H]2O [TAXOL®, paclitaxel]
day PTI until which tumors failed to grow (subcutaneous M109 tumors [2]; TAXOL 15 mg/kg, from day 12 PTI): 21 day PTI
log cell kill (LCK) (subcutaneous M109 tumors [2]; TAXOL 20 mg/kg i.v. with or without EC72 1800 nmol/kg qd×5 for 4 weeks, from day 12 PTI, FIG. 7): 1.3
day PTI until which tumors failed to grow (subcutaneous M109 tumors [2]; TAXOL 20 mg/kg, from day 12 PTI): 29 day PTI
long term survivors (subcutaneous M109 tumors [2]; TAXOL 20 mg/kg, n=5): none of the 5 mice
CR (complete response) (subcutaneous M109 tumors [2]; [10]): 2 of the 6
NR (no response) (subcutaneous M109 tumors [2]; [10]): 0
PR (partial response) (subcutaneous M109 tumors [2]; [10]): 4 of the 6
CR (complete response) (subcutaneous M109 tumors [2]; [11]): 2
PR (partial response) (subcutaneous M109 tumors [2]; [11]): 4
Log Cell Kill (LCK) (subcutaneous M109 tumors [2]; Taxol 15 mg/kg with EC72 0 or 1800 nmol/kg, from day 12 PTI, 6 mice/cohort, FIG. 8): 0.6
appearance and body weight during dosing ([3]; TAXOL 20 mg/kg with or without EC72 1800 nmol/kg): appeared sick, experienced weight loss
Bone: mice Normal [3, 12]: 6
Heart: mice Normal [3, 12]: 6
Kidney: mice Normal [3, 12]: 6
Liver: mice Normal [3, 12]: 5
Spleen: mice Normal [3, 12]: 6
Liver: grade of Degeneration ([3]; tissue pathology, grade in brackets): 1(1)
Liver: mice with Degeneration ([3]; tissue pathology, number before the bracket, n = 6 mice): 1(1)

CO[C@@]12[C@H](COC(N)=O)C3=C(C(=O)C(C)=C(NCCSSC[C@H](NC(=O)CC[C@H](NC(=O)c4ccc(NCc5cnc6nc(N)[nH]c(=O)c6n5)cc4)C(=O)O)C(=O)O)C3=O)N1C[C@@H]1N[C@@H]12 [EC72]
effect on growth of subcutaneous M109 tumor (subcutaneous M109 tumors [4]): effective in delaying the growth of the M109 tumor
activity against subcutaneous folate-receptor-negative 4T-1 tumor [5]: no activity
relative affinity for the folate receptor [6]: 0.59
Median Survival (subcutaneous M109 tumors [7]; initiation PTI 1): 56 days
Median Survival (subcutaneous M109 tumors [7]; initiation PTI 3): 54 days
Median Survival (subcutaneous M109 tumors [7]; initiation PTI 7): 28 days
Median Survival (subcutaneous M109 tumors [7]; initiation PTI 12): 26 days
anti-tumor response of EC72 alone (subcutaneous M109 tumors [7]; EC72 treatment initiated 12 days PTI, subcutaneous tumor model): failed to produce an anti-tumor response
% ILS (subcutaneous M109 tumors [7]; initiation PTI 1): 133%
Complete Responses (tumor-free at day 60 PTI) (subcutaneous M109 tumors [7]; initiation PTI 1, n = 5): 2 of 5 and 2
Partial Responses (subcutaneous M109 tumors [7]; initiation PTI 1, n = 5): 3 of 5 and 3
% ILS (subcutaneous M109 tumors [7]; initiation PTI 3): 125%
Complete Responses (tumor-free at day 60 PTI) (subcutaneous M109 tumors [7]; initiation PTI 3, n = 5): 0
Partial Responses (subcutaneous M109 tumors [7]; initiation PTI 3, n = 5): 5
% ILS (subcutaneous M109 tumors [7]; initiation PTI 7): 17%
Complete Responses (tumor-free at day 60 PTI) (subcutaneous M109 tumors [7]; initiation PTI 7, n = 5): 0
Partial Responses (subcutaneous M109 tumors [7]; initiation PTI 7, n = 5): 5
% ILS (subcutaneous M109 tumors [7]; initiation PTI 12): 8%
Complete Responses (tumor-free at day 60 PTI) (subcutaneous M109 tumors [7]; initiation PTI 12, n = 5): 0 of 5 and 0
Partial Responses (subcutaneous M109 tumors [7]; initiation PTI 12, n = 5): 5
increase in lifespan (ILS) (M109 tumor): 178%
animals tumor-free by day 70 post tumor cell inoculation (M109 tumor; 30 daily i.p. injections): 1 of 4
outcome of group coinjected with folic acid (M109 tumor; EC72 plus a 10-fold excess of free folic acid): all mice in this group eventually died from the tumor burden
myelosuppression / kidney damage [1]: no evidence of myelosuppression or kidney damage
blood-urea-nitrogen and creatine levels ([1]; following 30 consecutive daily injections): normal
DNA synthesis inhibition in the presence of excess free folic acid (FR-positive KB cells): effectively blocked any DNA synthesis inhibition
animals showing a complete response ([8]; 1800 nmol/kg i.p. qd×30): 1 of 4
increase in lifespan ([8]; 1800 nmol/kg i.p. qd×30 from day 4 post tumor inoculation): 240%
dose dependence of activity in M109 tumor-bearing mice ([8]; 100, 400, 1800 nmol/kg i.p. qd×30 from day 4, FIG. 11): dose-dependent activity
cytotoxicity compared with free mitomycin C ([9]; 15 minutes exposure at 37° C., 72 hours chase, FIG. 1): equal to that of free mitomycin C
cytotoxicity in the presence of excess free folic acid ([9]; at least a 100-fold excess of folic acid): blocked
